pEC50: −log10 of the molar value. Converted amounts (≈) assume the structure as drawn. Where a name gives a salt, the structure may show the parent alone. Each block holds one molecule with its values, some of them ahead of it.
How the values were obtained:
water solubility = type: physicochemical; conditions: Table I
pUC19 plasmid = experiment: DNA intercalating assay (DNA band shift); type: binding
Description: A culture of JM83 bacteria containing a pUC19 plasmid was grown in 500 mL of ampicillin culture medium, and harvested by centrifugation at 4000 rpm for 15 minutes at 4° C. The pellets were lysed by alkali method and the DNA plasmids were collected as the lower band (corresponding to the closed circular DNA) of a centrifuge tube after CsCl-ethidium bromide gradient centrifugation. This collection method is described in, for example, Molecular Cloning: A Laboratory Manual, Cold Spring Harbor Laboratory Press, (1989). After removal of ethidium bromide from the DNA plasmids with 1-butanol saturated with water, the CsCl was removed by dialysis with TE (pH 8.0) buffer.
The pUC19 plasmid (1 μg in each reaction) was incubated with various concentrations of solutions containing different polyamine-linked acridine dimers for 30 minutes at 25° C. in 20 μL reaction mixtures (10 mM Tris-HCl, pH 7.4, 0.1 mM EDTA, and 5 mM NaCl). After reaction, the DNA mixture was run on a 1.0% agarose gel, which was stained with ethidium bromide and destained with distilled water. The shifts of the DNA bands were visualized using UV light and analyzed by photography. The DNA band shifting pattern formed a sigmoidal curve. The 50% shift concentration (SC50) corresponded to a 50% DNA band shift at the particular concentration, according to the curve of the DNA band-shifting photograph.

[1] = system: human COLO 205 solid tumors; experiment: in vivo antitumor activity for human COLO 205 solid tumors; design: species or system human tumor in SCID mice
Description: SCID mice (16-18 g, 4-5 weeks old) were obtained from the animal center at the medical center of National Taiwan University, Taipei, R.O.C. and allowed to acclimate to their new environment for one week. The mice were given a sterilized pellet diet and sterilized water ad libitum, and housed under specific pathogene-free conditions in a temperature range between 23°-25° C. and a humidity of about 50±10%. The lighting was automatically operated on a 12 hour light/dark cycle. COLO 205 cells were obtained from ATCC, propagated in culture medium, and subcutaneously inoculated into the dorsal site of the mice.
After solid tumors were grown up to a size of about 1 gram, COLO 205F1 was isolated from the primary culture of the solid tumor and inoculated into the dorsal site of the mice. These tumors were grown to a size of approximately 200 mg (i.e., in a range of 100-300 mg). The mice were sorted according to body weight into groups including five mice. The compounds of Examples 5 and 6 were respectively resuspended in various solvents. The dosage of each compound was intraperitoneally (ip) or intravenously (iv) administered with different schedules. Tumor weights at the beginning of chemotherapy and at weekly intervals thereafter were estimated using two dimensional caliper measurements and calculated with the formula for an ellipsoid. Tumor weight was L X W^2 ×0.5, where L is the major axis and […] is the width of the tumor. The percentage of tumor growth (%TGI) was calculated according to the formula (1-(mean tumor weight of treated group/mean tumor weight of control group))×100. The tumor weights were corrected for tumor weight at the beginning of treatment. Tumor growth inhibition data were analyzed for statistical significance using the pooled variance t test. The tumor weights were monitored until termination of experiment.
Several studies of salt preparations, different formulations, and various administration routes and schedules were performed for the compounds of example 5 or 6 in order to identify their in vivo antitumor activities for human COLO 205 solid tumors. Tumor growth inhibitor studies of the compound of Example 5 were carried out in 1% carboxymethyl-cellulose against human COLO 205 solid tumors in SCID mice by ip administration with a schedule of Q4D×3 or by iv administration with a schedule of (Q1D×5)×2. Tumor growth inhibition studies of the compound at Example 6 were carried out in distilled H2 O against human COLO 205 solid tumor in SCID mice by iv administration with a schedule of (Q2D×3)×2 or in 2.5% cremophor against human COLO 205 solid tumor in SCID mice by iv administration with a schedule of (Q2D×3)×2.

solubility (water solubility): 10000 µg/mL
SMILES: COc1ccc2nc3cc(Cl)ccc3c(NCCCN(C)CCCNc3c4ccc(Cl)cc4nc4ccc(OC)cc34)c2c1 [Example 12 (acetic acid salt)]

SMILES: O=c1[nH]cc(F)c(=O)[nH]1 [Example 5-Fu, reference compound]
DNA intercalating activity (pUC19 plasmid; negative control): did not show DNA intercalating activity

SMILES: COc1ccc2nc3cc(Cl)ccc3c(NCCCNCCCNc3c4ccc(Cl)cc4nc4ccc(OC)cc34)c2c1 [Example 5]
in vivo antitumor activity ([1]; 1% carboxymethyl-cellulose, ip, Q4D×3): did not show in vivo antitumor activity
in vivo antitumor activity ([1]; 1% carboxymethyl-cellulose, iv, (Q1D×5)×2): did not show in vivo antitumor activity

SMILES: COc1cccc2c1C(=O)c1c(O)c3c(c(O)c1C2=O)C[C@@](O)(C(=O)CO)C[C@@H]3O[C@H]1C[C@H](N)[C@H](O)[C@H](C)O1 [adriarnycin, reference compound]
pEC50 (pUC19 plasmid; pUC19 plasmid, 30 minutes, 25° C., pH 7.4, read-out: SC50 (50% shift concentration)): 4.82 to 5.00

solubility (water solubility): 8000 µg/mL (≈ 13 mM)
SMILES: COc1ccc2nc3cc(Cl)ccc3c(NCCCNCCCNc3c4ccc(Cl)cc4nc4ccc(OC)cc34)c2c1 [Example 6]
in vivo antitumor activity, dose-response relationship ([1]; 2.5% cremophor, iv, (Q2D×3)×2): had the dose-response relationship of in vivo antitumor activity
in vivo antitumor activity ([1]; distilled H2O, iv, (Q2D×3)×2): demonstrated in vivo antitumor activity
